# Literature values as cited in patent US20100144738A1, “INHIBITORS OF C-MET AND USES THEREOF” (priority 2006, published 2010).
# Where a name gives a salt, the structure may show the parent alone. Read-outs that look alike come from different tables or passages of the source.
# Tests used:
# c-Met = c-Met (Homo sapiens, UniProt P08581); details: single dose
# Chain of c-Met (P08581 25-1390): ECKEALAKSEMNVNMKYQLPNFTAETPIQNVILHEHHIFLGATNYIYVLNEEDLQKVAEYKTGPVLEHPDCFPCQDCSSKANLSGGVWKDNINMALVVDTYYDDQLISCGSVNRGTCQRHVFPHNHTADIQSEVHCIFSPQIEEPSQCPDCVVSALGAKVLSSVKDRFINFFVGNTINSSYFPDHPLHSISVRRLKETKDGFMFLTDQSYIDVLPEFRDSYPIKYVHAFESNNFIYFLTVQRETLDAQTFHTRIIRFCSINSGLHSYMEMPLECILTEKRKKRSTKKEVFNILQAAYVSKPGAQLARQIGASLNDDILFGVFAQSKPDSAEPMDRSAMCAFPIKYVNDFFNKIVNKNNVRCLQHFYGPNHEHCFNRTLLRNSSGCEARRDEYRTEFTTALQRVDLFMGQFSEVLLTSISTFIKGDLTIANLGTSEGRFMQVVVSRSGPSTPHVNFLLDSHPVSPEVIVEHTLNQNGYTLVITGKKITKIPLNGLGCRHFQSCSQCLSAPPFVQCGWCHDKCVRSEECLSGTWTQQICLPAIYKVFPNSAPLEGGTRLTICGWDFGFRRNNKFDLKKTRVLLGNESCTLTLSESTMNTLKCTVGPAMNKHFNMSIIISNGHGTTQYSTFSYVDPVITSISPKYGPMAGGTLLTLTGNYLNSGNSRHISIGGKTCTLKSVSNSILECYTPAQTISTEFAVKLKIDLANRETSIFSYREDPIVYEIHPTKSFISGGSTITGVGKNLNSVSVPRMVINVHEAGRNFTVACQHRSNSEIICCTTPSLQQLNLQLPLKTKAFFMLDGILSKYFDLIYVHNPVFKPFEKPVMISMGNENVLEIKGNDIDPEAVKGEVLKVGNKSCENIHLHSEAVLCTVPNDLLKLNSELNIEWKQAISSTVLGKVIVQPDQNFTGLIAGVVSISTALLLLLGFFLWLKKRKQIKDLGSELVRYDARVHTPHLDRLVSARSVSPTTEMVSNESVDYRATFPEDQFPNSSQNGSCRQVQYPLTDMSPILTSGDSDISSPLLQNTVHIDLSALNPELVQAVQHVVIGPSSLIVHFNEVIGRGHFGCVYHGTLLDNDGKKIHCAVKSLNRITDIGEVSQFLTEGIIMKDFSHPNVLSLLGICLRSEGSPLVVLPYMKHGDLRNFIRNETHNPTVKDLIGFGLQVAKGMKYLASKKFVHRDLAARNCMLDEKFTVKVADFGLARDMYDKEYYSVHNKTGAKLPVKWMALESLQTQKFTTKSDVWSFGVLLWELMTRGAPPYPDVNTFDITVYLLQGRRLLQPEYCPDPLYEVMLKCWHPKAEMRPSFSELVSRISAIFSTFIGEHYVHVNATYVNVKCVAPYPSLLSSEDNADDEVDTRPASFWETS
duration of inhibition of c-Met phosphorylation in tumor xenografts (c-Met) [h],Compound,sensitivity of mutations to imatinib (c-Met mutations; mutations Asp816Val/Phe/Tyr),"sensitivity of mutations to imatinib (c-Met mutations; mutations Val560Gly, Glu839Lys, Asp820Gly)"
–,"Cc1ccc(NC(=O)c2ccc(CN3CCN(C)CC3)cc2)cc1Nc1nccc(-c2cccnc2)n1 [IMATINIB, imatinib mesylate]",resistant,sensitive
≤ 12,Cc1[nH]c(/C=C2\C(=O)Nc3ccc(S(=O)(=O)Cc4c(Cl)cccc4Cl)cc32)c(C)c1C(=O)N1CCC[C@@H]1CN1CCCC1 [PHA-665752],–,–
